What all share (assay): agar-dilution MIC
Common to all, as to assay type: cell-based

The test system of experiment [1] is Haemophilus influenzae C.L.
Experiment [2] concerns Klebsiella pneumoniae KAE.
The subject of experiment [3] is Streptococcus faecium ATCC 9790.
Experiment [4] relates to Streptococcus pyogenes C203.
Experiment [5] has as its system Klebsiella pneumoniae X68.
In experiment [6] the test system is Haemophilus influenzae 76.
In experiment [7] the test system is Streptococcus sp. group D 2041.

Values after ≈ are worked out from the molar mass of the structure shown. A value given as a limit tells only on which side of the number the result lay.

As to `CN[C@H](CC(C)C)C(=O)N[C@H]1C(=O)N[C@@H](CC(N)=O)C(=O)N[C@H]2C(=O)N[C@H]3C(=O)N[C@H](C(=O)N[C@H](C(=O)O)c4cc(O)cc(O)c4-c4cc3ccc4O)[C@H](O)c3ccc(c(Cl)c3)Oc3cc2cc(c3O[C@@H]2O[C@H](CO)[C@@H](O)[C@H](O)[C@H]2O[C@H]2C[C@](C)(N)[C@H](O)[C@H](C)O2)Oc2ccc(cc2Cl)[C@H]1O` [Vancomycin], the MIC in experiment [1] was 64 µg/mL (≈ 44.2 µM); in experiment [2] it was greater than 128 µg/mL; in experiment [3], 1 µg/mL (≈ 0.69 µM); in experiment [4], 0.5 µg/mL (≈ 0.345 µM); in experiment [5], greater than 128 µg/mL; in experiment [6], 128 µg/mL (≈ 88.3 µM). In experiment [7], this compound displayed an MIC of 4 µg/mL (≈ 2.76 µM).

The record behind these values is US4547488A, “Antibiotic M43D, pharmaceutical compositions and method of use” (priority 1984, dated 1985).
